{"source": "paper PMC10897476", "about": "“Pyridylpiperazine efflux pump inhibitor boosts in vivo antibiotic efficacy against K. pneumoniae” (EMBO Molecular Medicine, 2023)", "type_in_all_cases": "cell-based, Klebsiella pneumoniae", "key": {"[1]": {"system": "K. pneumoniae ATCC 43816 (WT)", "experiment": "Checkerboard assay levofloxacin x EPI, WT strain", "settings": "for checkerboard growth readout: ATCC43816 WT, levofloxacin 0 ng/mL; for percentage resazurin turnover: individual replicates, listed as BDM91288; for Median REMA values (percentage resazurin turnover): median n=3", "protocol": "(§1) MIC experiments were carried out according to the CLSI guidelines (CLSI [2023]). Overnight cultures were diluted to an OD600 = 0.001 in CAMHB followed by addition of efflux pump inhibitors (EPIs) at a final concentration of 100 µM. […] Plates were incubated at 37 °C for up to 20 h. Bacterial viability was evaluated using the resazurin microtitre assay (REMA) and measured by fluorescence using a Tecan Spaert multimode plate reader (Ex: 530 nm Em: 590 nm). MICs were defined as the concentration that prevented 90% of resazurin turnover compared to the non-treated bacteria.\n(§2) Bacterial suspensions, incubation and plate readouts were carried out as described above."}, "K. pneumoniae AcrB^V448E [2]": {"system": "K. pneumoniae AcrB^V448E", "experiment": "Checkerboard assay levofloxacin x EPI, AcrB V448E mutant", "settings": "for checkerboard growth readout: ATCC43816 AcrBV448E, levofloxacin 0 ng/mL; for Median REMA values / percentage resazurin turnover: Lev 0.00 ng/mL", "protocol": "as §1, §2"}, "[3]": {"system": "K. pneumoniae AcrB^V448E RamR^mut", "experiment": "Checkerboard assay levofloxacin x EPI, double mutant", "parameters": "checkerboard growth readout: unit not given here", "settings": "for checkerboard growth readout: ATCC43816 AcrBV448E ramRmut, levofloxacin 0 ng/mL", "protocol": "as §1, §2"}, "[4]": {"system": "K. pneumoniae RamR^mut (K124*stop)", "experiment": "Checkerboard assay levofloxacin x EPI, RamR mutant", "settings": "for checkerboard growth readout: ATCC43816 ramRmut, levofloxacin 0 ng/mL", "protocol": "as §1, §2"}, "K. pneumoniae AcrB^V448E [5]": {"system": "K. pneumoniae AcrB^V448E", "experiment": "MIC of antibiotics with and without EPI (REMA), AcrB V448E mutant", "settings": "K. pneumoniae-AcrB^V448E, Table 2", "protocol": "as §1\nMutations in acrB or ramR identified in the BDM88855.HCl (1’) resistant mutant (a.k.a., KPJC11) were introduced individually into K. pneumoniae ATCC 43816 chromosome by allelic exchange (Cianfanelli et al, [2020]). Briefly, 1-kb PCR products centred around each point mutation were generated by amplifying acrB with primers RH1251 ([…][…]) and RH1252 ([…][…]) or ramR with primers RH1249 ([…][…]) and RH1250 ([…][…]) from KPJC11 genomic DNA. PCR fragments were cloned into pFOK (Cianfanelli et al, [2020]) using NEB-building kit ([New England Biolabs]) to generate pEP1533 and pEP1534. Correct plasmids were confirmed by sequencing and introduced into K. pneumoniae ATCC43816 WT via conjugation with the MFDpir+ E. coli donor strain. Exconjugants were selected on kanamycin (50 mg/L) plates at 37 °C and plasmid chromosomal integration was checked by PCR. […] The next day, cultures were diluted and plated onto LB agar. Isolated colonies were then patched onto LB plates with or without kanamycin (50 mg/L) and Km^S candidates were evaluated for correct allelic exchange via acrB or ramR sequencing and then WGS to confirm no additional mutations were introduced."}}, "note": "“And” between values parts separate entries of the source, which are not always exact repeats. Equal values may be shown once."}
{"molecule": "Clc1cc2cc(N3CCNCC3)ccc2nc1N1CCNCC1", "note": "[compound 5]", "values": [{"measurement": "checkerboard growth readout", "setting": "[1]; EPI 2.3 µM", "result": 105}, {"measurement": "checkerboard growth readout", "setting": "[1]; EPI 4.7 µM", "result": 106}, {"measurement": "checkerboard growth readout", "setting": "[1]; EPI 9.4 µM", "result": 97}, {"measurement": "checkerboard growth readout", "setting": "[1]; EPI 19 µM", "result": 85}, {"measurement": "checkerboard growth readout", "setting": "[1]; EPI 38 µM", "result": 109}, {"measurement": "checkerboard growth readout", "setting": "[1]; EPI 75 µM", "result": 121}, {"measurement": "checkerboard growth readout", "setting": "[1]; EPI 150 µM", "result": 118}, {"measurement": "checkerboard growth readout", "setting": "[1]; EPI 300 µM", "result": 87}, {"measurement": "maximal boosting of levofloxacin activity (decrease of MIC)", "setting": "[1]; K. pneumoniae WT (ATCC 43816), at 38 µM BDM91288", "result": 4, "unit": "fold"}, {"measurement": "concentration needed for efficacy in vitro (boosting levofloxacin activity)", "setting": "[1]; K. pneumoniae WT, Fig. 2", "result": "9 to 38", "unit": "µM"}, {"measurement": "percentage resazurin turnover", "setting": "[1]; Lev 0.00 ng/mL + EPI 2.34 uM", "result": "110% and 85% and 105%"}, {"measurement": "Median REMA values (percentage resazurin turnover)", "setting": "[1]; Lev 0.00 ng/mL + EPI 2.34 uM", "result": 105, "unit": "%"}, {"measurement": "percentage resazurin turnover", "setting": "[1]; Lev 0.00 ng/mL + EPI 4.69 uM", "result": "106% and 98% and 117%"}, {"measurement": "Median REMA values (percentage resazurin turnover)", "setting": "[1]; Lev 0.00 ng/mL + EPI 4.69 uM", "result": 106, "unit": "%"}, {"measurement": "percentage resazurin turnover", "setting": "[1]; Lev 0.00 ng/mL + EPI 9.38 uM", "result": "97% and 89% and 110%"}, {"measurement": "Median REMA values (percentage resazurin turnover)", "setting": "[1]; Lev 0.00 ng/mL + EPI 9.38 uM", "result": 97, "unit": "%"}, {"measurement": "percentage resazurin turnover", "setting": "[1]; Lev 0.00 ng/mL + EPI 18.75 uM", "result": "66% and 85% and 116%"}, {"measurement": "Median REMA values (percentage resazurin turnover)", "setting": "[1]; Lev 0.00 ng/mL + EPI 18.75 uM", "result": 85, "unit": "%"}, {"measurement": "percentage resazurin turnover", "setting": "[1]; Lev 0.00 ng/mL + EPI 37.50 uM", "result": "112% and 98% and 109%"}, {"measurement": "Median REMA values (percentage resazurin turnover)", "setting": "[1]; Lev 0.00 ng/mL + EPI 37.50 uM", "result": 109, "unit": "%"}, {"measurement": "percentage resazurin turnover", "setting": "[1]; Lev 0.00 ng/mL + EPI 75.00 uM", "result": "89% and 138% and 121%"}, {"measurement": "Median REMA values (percentage resazurin turnover)", "setting": "[1]; Lev 0.00 ng/mL + EPI 75.00 uM", "result": 121, "unit": "%"}, {"measurement": "percentage resazurin turnover", "setting": "[1]; Lev 0.00 ng/mL + EPI 150.00 uM", "result": "94% and 132% and 118%"}, {"measurement": "Median REMA values (percentage resazurin turnover)", "setting": "[1]; Lev 0.00 ng/mL + EPI 150.00 uM", "result": 118, "unit": "%"}, {"measurement": "percentage resazurin turnover", "setting": "[1]; Lev 0.00 ng/mL + EPI 300 uM", "result": "107% and 80% and 87%"}, {"measurement": "Median REMA values (percentage resazurin turnover)", "setting": "[1]; Lev 0.00 ng/mL + EPI 300 uM", "result": 87, "unit": "%"}, {"measurement": "concentration at which boosting of levofloxacin activity starts", "setting": "[1]; parental K. pneumoniae strain, checkerboard", "result": "around 9 µM"}, {"measurement": "checkerboard growth readout", "setting": "K. pneumoniae AcrB^V448E [2]; EPI 2.3 µM", "result": 105}, {"measurement": "checkerboard growth readout", "setting": "K. pneumoniae AcrB^V448E [2]; EPI 4.7 µM", "result": 99}, {"measurement": "checkerboard growth readout", "setting": "K. pneumoniae AcrB^V448E [2]; EPI 9.4 µM", "result": 105}, {"measurement": "checkerboard growth readout", "setting": "K. pneumoniae AcrB^V448E [2]; EPI 19 µM", "result": 100}, {"measurement": "checkerboard growth readout", "setting": "K. pneumoniae AcrB^V448E [2]; EPI 38 µM", "result": 109}, {"measurement": "checkerboard growth readout", "setting": "K. pneumoniae AcrB^V448E [2]; EPI 75 µM", "result": 118}, {"measurement": "checkerboard growth readout", "setting": "K. pneumoniae AcrB^V448E [2]; EPI 150 µM", "result": 109}, {"measurement": "checkerboard growth readout", "setting": "K. pneumoniae AcrB^V448E [2]; EPI 300 µM", "result": 93}, {"measurement": "boosting of levofloxacin activity, in words", "setting": "K. pneumoniae AcrB^V448E [2]; K. pneumoniae AcrB^V448E", "result": "boosting was no longer observed"}, {"measurement": "Median REMA values", "setting": "K. pneumoniae AcrB^V448E [2]; BDM91288 2.34 uM", "result": 105, "unit": "%"}, {"measurement": "percentage resazurin turnover", "setting": "K. pneumoniae AcrB^V448E [2]; BDM91288 2.34 uM", "result": "105% and 87% and 109%"}, {"measurement": "Median REMA values", "setting": "K. pneumoniae AcrB^V448E [2]; BDM91288 4.69 uM", "result": 99, "unit": "%"}, {"measurement": "percentage resazurin turnover", "setting": "K. pneumoniae AcrB^V448E [2]; BDM91288 4.69 uM", "result": "99% and 89% and 111%"}, {"measurement": "Median REMA values", "setting": "K. pneumoniae AcrB^V448E [2]; BDM91288 9.38 uM", "result": 105, "unit": "%"}, {"measurement": "percentage resazurin turnover", "setting": "K. pneumoniae AcrB^V448E [2]; BDM91288 9.38 uM", "result": "105% and 90% and 114%"}, {"measurement": "Median REMA values", "setting": "K. pneumoniae AcrB^V448E [2]; BDM91288 18.75 uM", "result": 100, "unit": "%"}, {"measurement": "percentage resazurin turnover", "setting": "K. pneumoniae AcrB^V448E [2]; BDM91288 18.75 uM", "result": "100% and 93% and 138%"}, {"measurement": "Median REMA values", "setting": "K. pneumoniae AcrB^V448E [2]; BDM91288 37.50 uM", "result": 109, "unit": "%"}, {"measurement": "percentage resazurin turnover", "setting": "K. pneumoniae AcrB^V448E [2]; BDM91288 37.50 uM", "result": "99% and 109% and 157%"}, {"measurement": "Median REMA values", "setting": "K. pneumoniae AcrB^V448E [2]; BDM91288 75.00 uM", "result": 118, "unit": "%"}, {"measurement": "percentage resazurin turnover", "setting": "K. pneumoniae AcrB^V448E [2]; BDM91288 75.00 uM", "result": "124% and 117% and 118%"}, {"measurement": "Median REMA values", "setting": "K. pneumoniae AcrB^V448E [2]; BDM91288 150.00 uM", "result": 109, "unit": "%"}, {"measurement": "percentage resazurin turnover", "setting": "K. pneumoniae AcrB^V448E [2]; BDM91288 150.00 uM", "result": "109% and 152% and 108%"}, {"measurement": "Median REMA values", "setting": "K. pneumoniae AcrB^V448E [2]; BDM91288 300 uM", "result": 93, "unit": "%"}, {"measurement": "percentage resazurin turnover", "setting": "K. pneumoniae AcrB^V448E [2]; BDM91288 300 uM", "result": "114% and 93% and 89%"}, {"measurement": "checkerboard growth readout", "setting": "[3]; EPI 2.3 µM", "result": 87}, {"measurement": "checkerboard growth readout", "setting": "[3]; EPI 4.7 µM", "result": 75}, {"measurement": "checkerboard growth readout", "setting": "[3]; EPI 9.4 µM", "result": 86}, {"measurement": "checkerboard growth readout", "setting": "[3]; EPI 19 µM", "result": 93}, {"measurement": "checkerboard growth readout", "setting": "[3]; EPI 38 µM", "result": 98}, {"measurement": "checkerboard growth readout", "setting": "[3]; EPI 75 µM", "result": 128}, {"measurement": "checkerboard growth readout", "setting": "[3]; EPI 150 µM", "result": 153}, {"measurement": "checkerboard growth readout", "setting": "[3]; EPI 300 µM", "result": 136}, {"measurement": "modulation of levofloxacin MIC, in words", "setting": "[3]; K. pneumoniae AcrB^V448E RamR^mut", "result": "No modulation"}, {"measurement": "checkerboard growth readout", "setting": "[4]; EPI 2.3 µM", "result": 90}, {"measurement": "checkerboard growth readout", "setting": "[4]; EPI 4.7 µM", "result": 91}, {"measurement": "checkerboard growth readout", "setting": "[4]; EPI 9.4 µM", "result": 93}, {"measurement": "checkerboard growth readout", "setting": "[4]; EPI 19 µM", "result": 96}, {"measurement": "checkerboard growth readout", "setting": "[4]; EPI 38 µM", "result": 124}, {"measurement": "checkerboard growth readout", "setting": "[4]; EPI 75 µM", "result": 151}, {"measurement": "checkerboard growth readout", "setting": "[4]; EPI 150 µM", "result": 151}, {"measurement": "checkerboard growth readout", "setting": "[4]; EPI 300 µM", "result": 103}, {"measurement": "reversion of RamR-mediated levofloxacin resistance, in words", "setting": "[4]; K. pneumoniae RamR^mut", "result": "completely reverted"}, {"measurement": "susceptibility of the strain to antibiotic boosting by the EPI, in words", "setting": "K. pneumoniae AcrB^V448E [5]", "result": "resistant"}]}
